Experiments:
MCF7 [1] = assay: Cytotoxicity against human MCF7 cells by MTT assay; format: functional, cell-based
BT-20 [2] = assay: Cytotoxicity against human BT20 cells by MTT assay; format: functional, cell-based
A549 [3] = assay: Cytotoxicity against human A549 cells by MTT assay; format: functional, cell-based
MCF7 [4] = assay: Growth inhibition of human MCF7 cells at 100 uM by MTT assay relative to control; format: functional; details: read-out: GI
HCT-15 [5] = assay: Growth inhibition of human HCT15 cells at 100 uM by MTT assay relative to control; format: functional; details: read-out: GI
[6] = molecular target: Dual specificity protein kinase CLK1 (Mus musculus, UniProt P22518); assay: Inhibition of recombinant mouse GST-fused CLK1 expressed in Escherichia coli using RS peptide as substrate after 30 mins in presence of ATP by scintillation counting method
[7] = Growth inhibition of HEK293 cells at 100 uM by MTT assay relative to control; format: cell-based; details: human, read-out: GI
MDA-MB-468 [8] = assay: Growth inhibition of human MDA-MB-468 cells at 100 uM by MTT assay relative to control; format: functional; details: read-out: GI
[9] = molecular target: Glycogen synthase kinase-3 (Sus scrofa) (UniProt B2LUN4+I6LNT8); assay: Inhibition of porcine brain GSK-3 alpha/beta at 10 uM using YRRAAVPPSPSLSRHSSPHQpSEDEEE as substrate after 30 mins in presence of ATP by scintillation counting method relative to control
MIA PaCa-2 [10] = assay: Growth inhibition of human MIAPaCa2 cells at 100 uM by MTT assay relative to control; format: functional; details: read-out: GI
HCT-15 [11] = assay: Cytotoxicity against human HCT15 cells by MTT assay; format: functional, cell-based
MIA PaCa-2 [12] = assay: Cytotoxicity against human MIAPaCa2 cells by MTT assay; format: functional, cell-based
[13] = molecular target: Dual specificity protein kinase CLK1 (Mus musculus) (UniProt P22518); assay: Inhibition of recombinant mouse GST-fused CLK1 expressed in Escherichia coli at 10 uM using RS peptide as substrate after 30 mins in presence of ATP by scintillation counting method relative to control
ZR-75-1 [14] = assay: Growth inhibition of human ZR-75-1 cells at 100 uM by MTT assay relative to control; format: functional; details: read-out: GI
Sus scrofa = organism: Sus scrofa; assay: Inhibition of porcine brain CK1-delta/epsilon at 10 uM using CSK peptide as substrate after 30 mins in presence of ATP by scintillation counting method relative to control
DU-145 = assay: Growth inhibition of human DU145 cells at 100 uM by MTT assay relative to control; format: functional; details: read-out: GI
MDA-MB-468 [15] = assay: Cytotoxicity against human MDA-MB-468 cells by MTT assay; format: functional, cell-based
Asteroidea = assay: Inhibition of M-phase starfish oocytes CDK1/cyclin B at 10 uM using histone H1 as substrate after 30 mins in presence of ATP by scintillation counting method relative to control
[16] = molecular target: Dual specificity tyrosine-phosphorylation-regulated kinase 1A (Homo sapiens) (UniProt Q13627); assay: Inhibition of recombinant full length human GST-fused DYRK1A expressed in Escherichia coli at 10 uM using RS peptide as substrate after 30 mins in presence of ATP by scintillation counting method relative to control
[17] = molecular target: Glycogen synthase kinase-3 (Sus scrofa, UniProt B2LUN4+I6LNT8); assay: Inhibition of porcine brain GSK-3 alpha/beta using YRRAAVPPSPSLSRHSSPHQpSEDEEE as substrate after 30 mins in presence of ATP by scintillation counting method
ZR-75-1 [18] = assay: Cytotoxicity against human ZR-75-1 cells by MTT assay; format: functional, cell-based
[19] = molecular target: CDK9/cyclin T1 (Homo sapiens) (UniProt O60563+P50750); assay: Inhibition of recombinant human CDK9/cyclin T expressed in insect cells at 10 uM using YSPTSPSYSPTSPSYSPTSPSKKKK as substrate after 30 mins in presence of ATP by scintillation counting method relative to control
ZR-75-30 [20] = assay: Growth inhibition of human ZR-7530 cells at 100 uM by MTT assay relative to control; format: functional; details: read-out: GI
A549 [21] = assay: Growth inhibition of human A549 cells at 100 uM by MTT assay relative to control; format: functional; details: read-out: GI
HEK293 = assay: Cytotoxicity against HEK293 cells by MTT assay; format: cell-based; details: Homo sapiens
ZR-75-30 [22] = assay: Cytotoxicity against human ZR-7530 cells by MTT assay; format: functional, cell-based
[23] = molecular target: CDK2/Cyclin A2 (Homo sapiens) (UniProt P24941+P20248); assay: Inhibition of recombinant human CDK2/cyclin A at 10 uM using histone H1 as substrate after 30 mins in presence of ATP by scintillation counting method relative to control; format: protein-complex assay
PANC-1 [24] = assay: Cytotoxicity against human PANC1 cells by MTT assay; format: functional, cell-based
CDK2/Cyclin A2 = CDK2/Cyclin A2 (Homo sapiens, UniProt P24941); assay: Inhibition of recombinant human CDK2/cyclin A using histone H1 as substrate after 30 mins in presence of ATP by scintillation counting method; format: protein-complex assay
[25] = Inhibition of M-phase starfish oocytes CDK1/cyclin B using histone H1 as substrate after 30 mins in presence of ATP by scintillation counting method; set-up: species or system Asteroidea
BT-20 [26] = assay: Growth inhibition of human BT20 cells at 100 uM by MTT assay relative to control; format: functional; details: read-out: GI
MDA-MB-231 [27] = assay: Cytotoxicity against human MDA-MB-231 cells by MTT assay; format: functional, cell-based
PANC-1 [28] = assay: Growth inhibition of human PANC1 cells at 100 uM by MTT assay relative to control; format: functional; details: read-out: GI
[29] = Inhibition of porcine brain CK1-delta/epsilon using CSK peptide as substrate after 30 mins in presence of ATP by scintillation counting method; set-up: species or system Sus scrofa
MDA-MB-231 [30] = assay: Growth inhibition of human MDA-MB-231 cells at 100 uM by MTT assay relative to control; format: functional; details: read-out: GI
[31] = molecular target: Cyclin-dependent kinase 5/CDK5 activator 1 (Homo sapiens) (UniProt Q00535+Q15078); assay: Inhibition of recombinant human CDK5/p25 expressed in Escherichia coli at 10 uM using histone H1 as substrate after 30 mins in presence of ATP by scintillation counting method relative to control
Cyclin-dependent kinase 5/CDK5 activator 1 (Homo sapiens), sequence (Q00535 whole entry): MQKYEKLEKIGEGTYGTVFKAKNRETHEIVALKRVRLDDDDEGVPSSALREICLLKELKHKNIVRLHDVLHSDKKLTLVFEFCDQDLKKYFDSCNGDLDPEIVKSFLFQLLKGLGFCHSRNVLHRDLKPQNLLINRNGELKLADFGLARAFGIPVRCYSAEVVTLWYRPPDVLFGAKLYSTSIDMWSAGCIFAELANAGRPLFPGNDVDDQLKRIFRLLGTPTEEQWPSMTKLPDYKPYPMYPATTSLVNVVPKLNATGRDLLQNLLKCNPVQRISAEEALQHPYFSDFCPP
Cyclin-dependent kinase 5/CDK5 activator 1 (Homo sapiens), sequence (Q15078 99-307 partner limits assumed): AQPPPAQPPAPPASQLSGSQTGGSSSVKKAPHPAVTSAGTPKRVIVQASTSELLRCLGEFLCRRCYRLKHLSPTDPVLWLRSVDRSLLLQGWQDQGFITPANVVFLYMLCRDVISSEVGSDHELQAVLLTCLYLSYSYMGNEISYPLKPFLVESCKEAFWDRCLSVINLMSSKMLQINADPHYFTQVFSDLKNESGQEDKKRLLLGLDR

Dual specificity protein kinase CLK1 (Mus musculus), sequence (P22518 whole entry, looked up, the tested form may be a part): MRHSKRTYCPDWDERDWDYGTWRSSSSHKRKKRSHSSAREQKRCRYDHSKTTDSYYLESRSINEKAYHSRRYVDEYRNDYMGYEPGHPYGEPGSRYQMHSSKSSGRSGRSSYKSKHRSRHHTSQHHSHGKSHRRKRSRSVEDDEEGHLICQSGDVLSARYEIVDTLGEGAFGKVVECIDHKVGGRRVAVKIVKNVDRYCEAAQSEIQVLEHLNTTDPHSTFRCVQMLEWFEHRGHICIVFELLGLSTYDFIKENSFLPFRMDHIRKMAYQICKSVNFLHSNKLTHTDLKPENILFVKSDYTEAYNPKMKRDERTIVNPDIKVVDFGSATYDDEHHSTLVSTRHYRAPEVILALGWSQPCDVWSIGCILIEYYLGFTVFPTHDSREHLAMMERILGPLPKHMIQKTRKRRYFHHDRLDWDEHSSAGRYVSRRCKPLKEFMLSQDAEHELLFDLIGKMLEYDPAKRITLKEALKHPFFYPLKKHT
Dual specificity protein kinase CLK1, sequence (P22518 whole entry, the tested form may be a part): as the sequence (P22518 whole entry, looked up, the tested form may be a part) above

| SMILES | IC50 (MCF7 [1]) [µM] | IC50 (BT-20 [2]) [µM] | IC50 (A549 [3]) [µM] | inhibition of growth at 100 µM (MCF7 [4]) [%] | inhibition of growth at 100 µM (HCT-15 [5]) [%] | IC50 [6] [µM] | inhibition at 100 µM [7] [%] | inhibition of growth at 100 µM (MDA-MB-468 [8]) [%] | inhibition [9] [%] | inhibition of growth at 100 µM (MIA PaCa-2 [10]) [%] | IC50 (HCT-15 [11]) [µM] | IC50 (MIA PaCa-2 [12]) [µM] | inhibition [13] [%] | inhibition of growth at 100 µM (ZR-75-1 [14]) [%] | inhibition (Sus scrofa) [%] | inhibition of growth at 100 µM (DU-145) [%] | IC50 (MDA-MB-468 [15]) [µM] | IC50 [17] [µM] | IC50 (CDK2/Cyclin A2) [µM] | IC50 [25] [µM] | other results |
| --- | --- | --- | --- | --- | --- | --- | --- | --- | --- | --- | --- | --- | --- | --- | --- | --- | --- | --- | --- | --- | --- |
| COc1cc2ncnc(Nc3cc(-c4ccccc4)n(-c4ccccc4)n3)c2cc1OC | > 100 | > 100 | < 100 | > 50 | > 50 | > 10 | > 50 | > 50 | > 50 | > 50 | < 100 | 72.9 | > 50 | > 50 | > 50 | > 50 | > 100 | > 10 | > 10 | > 10 | inhibition (Asteroidea): > 50%; inhibition [16]: > 50%; IC50 (ZR-75-1 [18]): > 100 µM; inhibition [19]: > 50%; inhibition of growth at 100 µM (ZR-75-30 [20]): > 50%; inhibition of growth at 100 µM (A549 [21]): > 50%; IC50 (HEK293): > 100 µM; IC50 (ZR-75-30 [22]): 58.8 µM; inhibition [23]: > 50%; IC50 (PANC-1 [24]): 70.7 µM; inhibition of growth at 100 µM (BT-20 [26]): > 50%; IC50 (MDA-MB-231 [27]): 72.9 µM; inhibition of growth at 100 µM (PANC-1 [28]): > 50%; IC50 [29]: < 10 µM; inhibition of growth at 100 µM (MDA-MB-231 [30]): > 50%; inhibition [31]: > 50% |
| COc1ccc2c(c1)[nH]c1c(C)nccc12 [HARMINE] |  |  |  |  |  |  |  |  |  |  |  |  |  |  |  |  |  | > 10 | > 10 | > 10 |  |
| COc1cc2ncnc(Nc3cc(-c4ccccc4)[nH]n3)c2cc1OC | > 100 | > 100 | 29.7 | > 50 | > 50 | > 10 | > 50 | > 50 | > 50 | > 50 | > 100 | > 100 | > 50 | > 50 | > 50 | > 50 | > 100 | > 10 | > 10 | > 10 | inhibition (Asteroidea): > 50%; inhibition [16]: > 50%; IC50 (ZR-75-1 [18]): > 100 µM; inhibition [19]: > 50%; inhibition of growth at 100 µM (ZR-75-30 [20]): > 50%; inhibition of growth at 100 µM (A549 [21]): > 50%; IC50 (HEK293): 71.1 µM; IC50 (ZR-75-30 [22]): > 100 µM; inhibition [23]: > 50%; IC50 (PANC-1 [24]): 9.3 µM; inhibition of growth at 100 µM (BT-20 [26]): > 50%; IC50 (MDA-MB-231 [27]): > 100 µM; inhibition of growth at 100 µM (PANC-1 [28]): > 50%; IC50 [29]: 1.6 µM; inhibition of growth at 100 µM (MDA-MB-231 [30]): > 50%; inhibition [31]: > 50% |

— ChEMBL document CHEMBL4020763, “N-(1H-Pyrazol-3-yl)quinazolin-4-amines as a novel class of casein kinase 1δ/ε inhibitors: Synthesis, biological evaluation and molecular modeling studies” (Bioorg Med Chem Lett, 2017)
